The test addresses T1, cPLA2 (Homo sapiens, UniProt P47712).
T1 sequence (P47712 1-749): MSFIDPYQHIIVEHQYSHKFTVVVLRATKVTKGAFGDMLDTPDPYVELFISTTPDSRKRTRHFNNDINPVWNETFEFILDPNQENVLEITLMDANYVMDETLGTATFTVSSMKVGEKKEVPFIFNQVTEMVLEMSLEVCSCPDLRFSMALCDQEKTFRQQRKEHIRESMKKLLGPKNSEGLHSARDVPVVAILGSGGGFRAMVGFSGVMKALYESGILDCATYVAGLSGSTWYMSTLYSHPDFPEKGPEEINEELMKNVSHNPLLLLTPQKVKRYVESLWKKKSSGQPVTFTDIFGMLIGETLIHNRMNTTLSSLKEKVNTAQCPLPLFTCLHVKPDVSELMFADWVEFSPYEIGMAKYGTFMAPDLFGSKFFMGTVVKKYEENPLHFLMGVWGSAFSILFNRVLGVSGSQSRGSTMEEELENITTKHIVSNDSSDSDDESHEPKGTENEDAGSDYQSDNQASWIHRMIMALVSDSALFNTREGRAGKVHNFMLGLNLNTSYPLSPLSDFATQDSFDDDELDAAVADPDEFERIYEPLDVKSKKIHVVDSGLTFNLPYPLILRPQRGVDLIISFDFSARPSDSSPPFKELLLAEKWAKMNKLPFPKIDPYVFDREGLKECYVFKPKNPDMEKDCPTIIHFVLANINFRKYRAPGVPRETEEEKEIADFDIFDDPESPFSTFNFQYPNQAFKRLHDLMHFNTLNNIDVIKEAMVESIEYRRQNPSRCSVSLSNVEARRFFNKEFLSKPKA
As to the kind of experiment: cPLA2 activity on TX-100/PAPC mixed micelles, inhibition by 2-oxoamides. It counts as biochemical. Conditions: for Inhibition of cPLA2: result in words; for XI(50) (mole fraction) / Highest Conc. (mole fraction) w/ % inhibition: Table 2, iPLA2; for XI(50): mixed micelles TX-100 400 μM, PAPC 97 μM, PIP2 3 μM (0.6 mole %); for Inhibitory potency relative to OA4 (fold less potent): cPLA2, compared with OA4.

Entries after “also recorded” stand apart in the source; their conditions may differ.

Regarding `O=C(O)CCCNC(=O)C(=O)CCCc1ccccc1` [OA36, 4-(2-Oxo-5-phenyl-pentanoylamino)-butyric Acid], the “Inhibition of cPLA2” value is “lack of inhibition”.
Still for that read-out and setting: the value for `CCCCCCCCCCC(=O)C(=O)N[C@H](CCC(=O)O)C(=O)NCC` [OA31, 4-Ethylcarbamoyl-4-(R)-(2-oxo-dodecanoylamino)-butyric Acid] was “essentially no measurable inhibition”; that for `COC(=O)CCCNC(=O)C(=O)CCCc1ccccc1` [OA34] was “do not inhibit”.
For `CCCCCCCCCCCCCC(=O)C(=O)N[C@H](CCC(=O)O)Cc1ccccc1` [OA9, (4R)-4-(2-Oxo-pentadecanoylamino)-5-phenyl-pentanoic Acid], the “XI(50) (mole fraction)” value is recorded as 0.035 ± 0.016 mole fraction.
On to `CCNC(=O)C(=O)CC` [OA8], for which, where the note is “at 0.02 mole fraction”, the “Highest Conc. (mole fraction) w/ % inhibition” value is listed as 0.02; 22% ± 7%.
Turning to `CCCCCCCCCCCCCC(=O)C(=O)N[C@H](CCC(=O)O)CC(C)C` [OA12, (4R)-6-Methyl-4-(2-oxo-pentadecanoylamino)-heptanoic Acid], the “XI(50) (mole fraction)” value came out at 0.017 ± 0.006 mole fraction.
Take `CCCCCCCCCCCCCCC(=O)C(=O)N[C@@H](CCC(=O)O)C(=O)NCCCCCCCCCC` [OA15, 4-Decylcarbamoyl-4-(S)-(2-oxo-hexadecanoylamino)-butyric Acid]: the “XI(50) (mole fraction)” value stood at 0.044 ± 0.007 mole fraction and the “Inhibition of cPLA2” value is given as “moderate level of inhibition”.
Consider `CCCCCCCCCCC(=O)C(=O)N[C@@H](CCC(=O)O)C(=O)NCC` [OA29, 4-Ethylcarbamoyl-4-(S)-(2-oxo-dodecanoylamino)-butyric Acid], for which the “Inhibition of cPLA2” value is listed as “did not inhibit; also recorded: essentially no measurable inhibition”.
On to `CCOC[C@H](CCC(=O)O)NC(=O)C(=O)CC` [OA10], for which the “XI(50) (mole fraction)” value is 0.045 ± 0.007 mole fraction and the “XI(50)” value amounted to 0.045±0.007 mole fraction.
Turning to `O=C(O)CCCNC(=O)C(=O)CCCCc1ccccc1` [OA35, 4-(2-Oxo-6-phenyl-hexanoylamino)-butyric Acid], the “Inhibition of cPLA2” value is “lack of inhibition”.
As to `CCCCCCCCCCCCCC(=O)C(=O)N[C@@H](CCCC)CCCC(=O)O` [OA5, (5S)-5-(2-Oxopentadecanoylamino)-nonanoic Acid], the “XI(50) (mole fraction)” value was 0.008 ± 0.003 mole fraction and the “Inhibitory potency relative to OA4 (fold less potent)” value is “essentially equivalent”.
As for `CCCCCCC(=O)C(=O)N[C@H](CCC(=O)O)Cc1ccccc1` [OA17, (4R)-4-(2-Oxo-octanoylamino)-5-phenyl-pentanoic Acid], under “at 0.091 mole fraction”, the “Highest Conc. (mole fraction) w/ % inhibition” value is on record as 0.091; 24%.
For the compound `CCCCCCCCCCC(=O)C(=O)N[C@@H](CCC(=O)O)COC(=O)NCCCCCCCC` [OA16, 5-octylcarbamoyloxy-4-(S)-(2-oxo-dodecanoylamino)-pentanoic Acid], the “Inhibition of cPLA2” value is recorded as “essentially no measurable inhibition”. In addition, under “at 0.091 mole fraction”, the “Highest Conc. (mole fraction) w/ % inhibition” value is recorded as 0.091, 60%.
For `CCCCCCCCCCOC[C@@H](CCC(=O)O)NC(=O)C(=O)CCCCCCCCCC` [OA11, (4R)-5-(Decyloxy)-4-[(2-oxododecanoyl)amino]pentanoic Acid], the “XI(50) (mole fraction)” value is on record as 0.047 ± 0.006 mole fraction and the “XI(50)” value was determined as 0.047±0.006 mole fraction.
For `CCCCCCCCCCC(=O)C(=O)N[C@@H](CCCC)CCCCC(=O)O` [OA6, (6S)-6-(2-Oxo-dodecanoylamino)-decanoic Acid], the “XI(50) (mole fraction)” value is 0.018 ± 0.009 mole fraction and the “Inhibitory potency relative to OA4 (fold less potent)” value is reported as “around 2 fold”.
`CCCCCCCCCCCCCC(=O)C(=O)N1CCCC1CCC(=O)O` (centres unmarked) [OA18, 3-[1-(2-Oxo-pentadecanoyl)-pyrrolidin-2-yl]propionic Acid]: the “Highest Conc. (mole fraction) w/ % inhibition” value (at 0.091 mole fraction) was 0.091; 24%.
As to `CCCCCCCCCCC(=O)C(=O)N[C@H](CCCC)CCC(=O)O` [OA7, (4R)-4-[(2-Oxododecanoyl)amino]octanoic acid], the “XI(50) (mole fraction)” value stood at 0.068 ± 0.005 mole fraction and the “XI(50)” value is recorded as 0.068±0.005 mole fraction.
`CCCCCCCCCCCCCC(=O)C(=O)N[C@@H](CCCC)CC(=O)O` [OA3, (3S)-(2-Oxo-pentadecanoylamino)-heptanoic Acid]: the “XI(50) (mole fraction)” value is reported as 0.027 ± 0.004 mole fraction and the “Inhibitory potency relative to OA4 (fold less potent)” value is “around 3 fold”.
As to `CCCCCCCCCCC(=O)C(=O)N[C@H](CCC(=O)O)COC(=O)NCC` [OA32, 5-ethylcarbamoyloxy-4-(R)-(2-oxo-dodecanoylamino)-pentanoic Acid], the “Inhibition of cPLA2” value is “essentially no measurable inhibition”.
For `CCCCCCCCCCC(=O)C(=O)N[C@@H](CCC(=O)O)COC(=O)NCC` [OA30, 5-ethylcarbamoyloxy-4-(S)-(2-oxo-dodecanoylamino)-pentanoic Acid], the “Inhibition of cPLA2” value is “does not inhibit; also recorded: essentially no measurable inhibition”.
As to `CCCCCCCCCCC(=O)C(=O)N[C@H](CCC(=O)O)CC(C)C` [OA13, (4R)-6-Methyl-4-(2-oxo-dodecanoylamino)-heptanoic Acid], the “XI(50) (mole fraction)” value stood at 0.033 ± 0.013 mole fraction.

The values above are taken from US7745489B2, “Compositions and methods for inhibition of phospholipase A2 mediated inflammation” (The Regents of the University of California, priority 2002, dated 2010).
